Columns and labels:
human osteoblast = test: Lucifer Yellow dye transfer in human osteoblasts; type: cell-based; conditions: 10 minutes; after 48 hours hypoxia 3-6% O2 (7 cells before)
Experimental: (§1) Human osteblast cells (hOB): Cells were isolated from human bone marrow obtained by puncture of the posterior iliac spine of healthy volunteers (aged 20-36): 10-15 ml marrow material was collected in 15 ml PBS+Ca,Mg (Life Technologies, Cat.No. 14040) with 100 U/ml Heparin (Sigma, Cat.No. H-3149). The mononuclear fraction of the marrow was isolated on a Lymphoprep gradient (Nycomed Pharma, Cat.No. 1001967), by centrifugation at 2200 rpm for 30 min. After harvesting, the mononuclear fraction was washed once with culture medium and centrifuged at 1800 rpm for 10 min. Subsequently cells were counted and plated in culture medium at 8×10^6 cells/100 mm dish. hOB medium (all reagents obtained from Life Technologies): MEM w/o Phenol Red w/Glutamax (Cat.No. 041-93013) supplemented with 10% heat inactivated fetal calf serum (Cat.No. 10106) and 0.1% Penicillin/Streptomycin (Cat.No. 15140). Medium was changed the following day and the cells were cultured at 37° C. in 5%CO2 with medium change every 7 days. […]
To assess the effect of the compound on direct cellular coupling, microinjection experiments were performed according to the method described above. […] After 30 seconds, the number of cells containing dye was assessed. […] Then cellular coupling was re-assessed by microinjecting LY, and at this point the dye was only passed to an average of 7 cells (n=10).

ROS 17/2.8 cells = test: Intercellular calcium wave propagation in ROS 17/2.8 cells; type: cell-based, rat; conditions: 10^−8 M, 10 minutes; 48 hours hypoxia 3-6% O2 (2.2 cells before)
Experimental: ROS 17/2.8 cells: Cells were cultured in 100 mm dishes at 37° C. with 5% CO2 and medium change every 2-3 days. ROS medium (all reagents obtained from Life Technologies) MEM (Cat.No. 31095) supplemented with 10% heat-inactivated calf serum (Cat.No. 16170), 1% NEAA (Cat.No. 11140), 1% Sodium Pyruvate (Cat.No. 11360), 1% L-Glutamine (Cat.No. 25030) and 0.1% Penicillin/Streptomycin (Cat.No. 15140). For video imaging experiments, cells were plated on coverslips at 2-3×10^5 cells/coverslip and cultured for 2-3 days before use.
The cells cultured on coverslips were loaded with 5 μM fura-2-AM (Molecular Probes, Cat.No. F-1221), for 30 minutes at 37° C., and incubated in fresh medium for 20 minutes. Coverslips were then affixed to a PDMI-2 culture chamber (Medical Systems Corp.), maintained at 37° C. with superfused CO2, on a Zeiss Axiovert microscope. Intercellular calcium waves were induced by mechanical stimulation of a single cell using a borosilicate glass micro pipette affixed to an Eppendorf 5171 micromanipulator. Imaging was performed using a MetaMorph imaging system (Universal Imaging). The excitation light (340 and 380 nm) was provided by a monochromator (T.I.L.L. Photonics GmbH). Images were acquired with an intensified CCD camera (Dage MTI) and digitized with a Matrox MVP image processing board. […]

human osteoblastic cells = test: Intercellular calcium wave propagation in human osteoblasts; type: cell-based; conditions: 10^−8 M; medium without glucose (1.4 cells before); after ATP desensitization
Experimental: as §1, with “days. After 3-4 weeks of culture the cells had reached 70% confluence. The medium was then supplemented with 100 nM Dexamethasone (Sigma, Cat.No. D-4902) for 7 days.” for “days.”
Metabolic stress induced by hypoglycemia is also known to decrease gap junctional communication. […] After ATP desensitization as described above, one single cell was stimulated mechanically, and the number of cells in the wave was recorded. […]

Ac-D-Tyr-D-Pro-D-4Hyp-Gly-D-Ala-Gly-NH2 [Compound 2]
dye transfer, number of cells (human osteoblast): 9 cells
average number of cells in the calcium wave (ROS 17/2.8 cells): 5.4 cells
average number of cells in the calcium wave (human osteoblastic cells): 2.9 cells

Source: US7250397B2, “Antiarrhythmic peptides” (Zealand Pharma A/S, priority 2000, dated 2007)
